Assay results: US20110207751A1, “HETEROCYCLIC COMPOUNDS AND USES AS ANTICANCER AGENTS” (priority 2010, published 2011)
Where a name gives a salt, the structure may show the parent alone.

Tests used:
[1] = tested on: NCI-H460 cells (human large cell lung carcinoma cell line); test: Inhibition of cell proliferation, xCelligence cell index; format: cell-based; details: 72 hr post compound treatment, read-out: calculated IC50
Text: (§1) The biological activity of compounds disclosed herein was monitored and profiled using the Real-Time Cell Electronic Sensing (RT-CES®) system from ACEA Biosciences, Inc. The RT-CES system utilizes cell-substrate impedance technology to monitor cellular behavior inside tissue culture wells in a microtiter plate format. The technology features in the integration of molecular and cell biology with microelectronics and is based on the electronic detection of biological assay process. The details of this cell electronic sensing technology and associated devices, systems and methods of use are described in U.S. Pat. No. 7,167,585; U.S. Pat. No. 7,468,255; PCT publication number WO 2004/010102; U.S. Pat. No. 7,470,533; and U.S. Pat. No. 7,459,303, each of which is incorporated herein by reference. Additional details of RT-CES technology are further disclosed in U.S. Pat. No. 7,468,255.
(§2) For measurement of cell-substrate or cell-electrode impedance using RT-CES technology, microelectrodes having appropriate geometries are fabricated onto the bottom surfaces of microtiter plate or similar device, facing into the wells. […] When there are changes to the biological status of the cells analogue electronic readout signals are measured automatically and in real time, and are converted to digital signals for processing and for analysis. In a RT-CES system, a cell index (arbitrary representation of change in impedance) is automatically derived and provided based on measured electrode impedance values. […]
(§3) To quantify cell status based on the measured cell-electrode impedance, a parameter termed Cell Index is derived. Cell Index is a quantitative measure of the status of the cells in an electrode-containing well. […]
(§4) NCI-H460 cells (human large cell lung carcinoma cell line) were seeded into wells of 96 well E-plate devices (Roche) with an initial seeding density of 5000 cells per well and were pre-incubated in incubator under standard cell culture condition for about 24 hours. […] The cell status was monitored prior to and after the compound addition using xCelligence system (Roche). […]

[2] = tested on: A172 cells (human brain cancer cell line); test: as above; format: cell-based; details: A 172, 72 hr post compound treatment, read-out: calculated IC50
Text: (§5) For measurement of cell-substrate or cell-electrode impedance using RT-CES technology, microelectrodes having appropriate geometries are fabricated onto the bottom surfaces of microtiter plate or similar device, facing into the wells. Cells are introduced into the wells of the devices, and make contact to and attach to the electrode surfaces. The presence, absence or change of properties of cells affects the electronic and ionic passage on the electrode sensor surfaces. Measuring the impedance between or among electrodes provides important information about biological status of cells present on the sensors. When there are changes to the biological status of the cells analogue electronic readout signals are measured automatically and in real time, and are converted to digital signals for processing and for analysis. In a RT-CES system, a cell index (arbitrary representation of change in impedance) is automatically derived and provided based on measured electrode impedance values. […]
A172 cells (human brain cancer cell line) were seeded into wells of 96 well E-plate devices (Roche) with an initial seeding density of 5000 cells per well and were pre-incubated in incubator under standard cell culture condition for about 24 hours. […] The cell status was monitored prior to and after the compound addition using xCelligence system (Roche). […]

[3] = tested on: SW1088 cells (human brain cancer cell line); test: as above; format: cell-based; details: 72 hr post compound treatment, read-out: calculated IC50
Text: For measurement of cell-substrate or cell-electrode impedance using RT-CES technology, microelectrodes having appropriate geometries are fabricated onto the bottom surfaces of microtiter plate or similar device, facing into the wells. Cells are introduced into the wells of the devices, and make contact to and attach to the electrode surfaces. The presence, absence or change of properties of cells affects the electronic and ionic passage on the electrode sensor surfaces. Measuring the impedance between or among electrodes provides important information about biological status of cells present on the sensors. When there are changes to the biological status of the cells analogue electronic readout signals are measured automatically and in real time, and are converted to digital signals for processing and for analysis. In a RT-CES system, a cell index (arbitrary representation of change in impedance) is automatically derived and provided based on measured electrode impedance values. The cell index obtained for a given well reflects: 1) how many cells are attached to the electrode surfaces in this well; 2) how well cells are attached to the electrode surfaces in this well. […]
SW1088 cells (human brain cancer cell line) were seeded into wells of 96 well E-plate devices (Roche) with an initial seeding density of 5000 cells per well and were pre-incubated in incubator under standard cell culture condition for about 24 hours. […] The cell status was monitored prior to and after the compound addition using xCelligence system (Roche). […]

[4] = tested on: A549 cells (human lung carcinoma cell line); test: Inhibition of cell proliferation, RT-CES cell index; format: cell-based; details: 72 hr post compound treatment, read-out: calculated IC50
Text: as §1, §2, §3
as §4, with “A549” for “NCI-H460”, “(human” for “(human large cell”, “RT-CES” for “xCelligence”, “(ACEA Biosciences).” for “(Roche).”

[5] = tested on: U138MG cells (human brain cancer cell line); test: Inhibition of cell proliferation, xCelligence cell index; format: cell-based; details: U138-MG, 72 hr post compound treatment, read-out: calculated IC50
Text: as §5
U138MG cells (human brain cancer cell line) were seeded into wells of 96 well E-plate devices (Roche) with an initial seeding density of 5000 cells per well and were pre-incubated in incubator under standard cell culture condition for about 24 hours. […] The cell status was monitored prior to and after the compound addition using xCelligence system (Roche). […]

[6] = tested on: H1993 cells (human non-small cell lung cancer cell line); test: as above; format: cell-based; details: NCI-H1993, 72 hr post compound treatment, read-out: calculated IC50
[7] = tested on: H596 cells (human adenosquamous lung carcinoma cell line); test: as above; format: cell-based; details: NCI-H596, 72 hr post compound treatment, read-out: calculated IC50
Text: as §1, §2, §3
as §4, with “H596” for “NCI-H460”, “adenosquamous” for “large cell”

[8] = tested on: MAP-rich tubulin; test: In vitro microtubule assembly assay; format: biochemical; details: absorbance at 405 nm
Protocol: In vitro microtubule assembly assay. Microtubule polymerization was conducted in a 96-well microtiter plate with MAP-rich tubulin and various concentrations of COMPOUND O in a buffer containing 80 mM PIPES pH 6.9, 0.5 mM EGTA, 2 mM MgCl2, 1 mM GTP, 10% glycerol and 4% (v/v) dimethyl sulfoxide (DMSO) based on the HTS-tubulin polymerization assay kit protocol (Cytoskeleton). The increase in absorbance was measured at 405 nm a Beckman Multimode DTX880 plate reader at 37° C. and recorded every 60 seconds for 30 minutes.

[9] = tested on: B×PC3 cells (human pancreatic cancer cell line); test: Inhibition of cell proliferation, xCelligence cell index; format: cell-based; details: 72 hr post compound treatment, read-out: calculated IC50
Text: as §1, §2, §3
as §4, with “B×PC3” for “NCI-H460”, “pancreatic cancer” for “large cell lung carcinoma”

| IC50 [1] [nM] | IC50 [2] [nM] | IC50 [3] [nM] | IC50 [4] [nM] | IC50 [5] [nM] | IC50 [6] [nM] | IC50 [7] [nM] | IC50 [9] [nM] | SMILES | effect on tubulin polymerization ([8]; 0.04 μM) | effect on tubulin polymerization, concentration dependence ([8]; various concentrations) | effect on tubulin polymerization ([8]; 5 μM) | inhibition of tubulin polymerization compared with control sample ([8]; 5 μM) |
| --- | --- | --- | --- | --- | --- | --- | --- | --- | --- | --- | --- | --- |
| 10.9 | 11.6 | 21.2 | 10.9 | 3.41 | 60.2 | 37.9 | 6.6 | CCc1ccc(Nc2nc(-c3c(C)nc4sccn34)cs2)cc1 [COMPOUND O, 2-(4-ethylphenyl)amino-4-(6-methylimidazo[2,1-b]thiazol-5-yl)-thiazole monohydrobromide] | no inhibition | inhibited in a concentration-dependent manner |  |  |
| 2.68 | 4.46 | 13.1 | 5.3 | 18.1 | 5.12 | 12.5 | 8.86 | CC(=O)O[C@H]1C(=O)[C@@]2(C)[C@H]([C@H](OC(=O)c3ccccc3)[C@]3(O)C[C@H](OC(=O)[C@H](O)[C@@H](NC(=O)c4ccccc4)c4ccccc4)C(C)=C1C3(C)C)[C@]1(OC(C)=O)CO[C@@H]1C[C@@H]2O [paclitaxel] |  |  | further enhanced compared to that of the negative control |  |
| 10.4 | 1.3 | 4.96 | 61.8 | 0.641 | 2.43 | 36.9 | 4.06 | CC[C@]1(O)C[C@H]2CN(CCc3c([nH]c4ccccc34)[C@@](C(=O)OC)(c3cc4c(cc3OC)N(C=O)[C@H]3[C@@](O)(C(=O)OC)[C@H](OC(C)=O)[C@]5(CC)C=CCN6CC[C@]43[C@@H]65)C2)C1 [vincristine] |  |  |  | more than 50% |
